US11149019B2, “Phenylpyridine derivative and pharmaceutical composition comprising the same” (Daewoong Pharmaceutical Co., Ltd., priority 2017, dated 2021)

Experiments:
ITK = target: T1, ITK (Homo sapiens, UniProt Q08881); assay: ADP-Glo + ITK Kinase enzyme system kit, inhibitory activity against ITK; assay type: biochemical; conditions: ITK enzyme 0.4 ng/ul, ATP final concentration of 25 ul, 30° C. for 1 hour, luminescence, duplicate
T1 construct: purchased Promega Corporation
T1 sequence (Q08881 1-620): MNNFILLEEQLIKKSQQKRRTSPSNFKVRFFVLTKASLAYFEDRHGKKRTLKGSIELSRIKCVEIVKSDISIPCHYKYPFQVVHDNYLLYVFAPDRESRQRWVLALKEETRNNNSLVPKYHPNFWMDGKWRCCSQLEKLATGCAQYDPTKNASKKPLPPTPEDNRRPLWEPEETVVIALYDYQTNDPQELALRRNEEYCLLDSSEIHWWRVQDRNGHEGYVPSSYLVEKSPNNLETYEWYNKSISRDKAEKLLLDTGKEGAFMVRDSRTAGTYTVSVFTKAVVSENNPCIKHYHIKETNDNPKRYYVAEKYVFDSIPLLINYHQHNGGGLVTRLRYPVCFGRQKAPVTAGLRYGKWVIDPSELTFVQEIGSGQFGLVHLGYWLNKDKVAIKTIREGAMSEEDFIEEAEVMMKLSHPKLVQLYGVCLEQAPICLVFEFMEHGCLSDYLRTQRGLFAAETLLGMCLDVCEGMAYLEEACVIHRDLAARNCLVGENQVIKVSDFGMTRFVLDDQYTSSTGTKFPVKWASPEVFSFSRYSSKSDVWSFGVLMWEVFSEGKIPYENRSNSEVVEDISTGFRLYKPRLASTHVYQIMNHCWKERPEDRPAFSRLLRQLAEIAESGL
Procedure: (§1) Inhibitory activities against BTK and ITK were measured for the compounds prepared in the above Examples as follows.
The inhibitory activity against ITK was evaluated using ‘ADP-Glo™+ITK Kinase enzyme system’ kit (Promega Corporation). In a white 96-well plate, 10 ul of ITK enzyme prepared so as to have a final concentration of 0.4 ng/ul was mixed with 5 ul of compounds having a final concentration of 1 uM in the case of evaluating a single concentration of compound and a concentration of 1000, 300, 100, 30, 10, 3, 1, 0.3, 0.1 and 0.03 nM in the case of IC50 evaluation, and then reacted at room temperature for 15 minutes. To the plate on which reactions were completed, 5 ul of substrate and 5 ul of ATP prepared so as to have a final concentration of […] added and then allowed to react at 30° C. for 1 hour. All wells of the plate were treated with 25 ul of ADP-Glo™ reagent and then allowed to react at 30° C. for 40 minutes. After that, all wells were treated with 50 ul of kinase detection buffer, and then allowed to react at 30° C. for 30 minutes under light shielding conditions. For the plate on which all reactions were completed, luminescence was measured and the results were calculated. Evaluation was carried out in duplicate, and negative control and positive control were calculated depending on whether or not the enzyme was added without treatment of the compound. The IC50 was calculated based on the calculated values.

BTK = target: T2, BTK (Homo sapiens, UniProt Q06187); assay: ADP-Glo + BTK Kinase enzyme system kit, inhibitory activity against BTK; assay type: biochemical; conditions: BTK enzyme 1 ng/ul, ATP 10 μM, 30° C. for 1 hour, luminescence, duplicate
T2 construct: purchased Promega Corporation
Procedure: as §1
The inhibitory activities against BTK were evaluated using ‘ADP-Glo™+BTK Kinase enzyme system’ kit (Promega Corporation). In a white 96-well plate, 10 ul of BTK enzyme prepared so as to have a final concentration of 1 ng/ul was mixed with 5 μl of compounds having a final concentration of […] the case of evaluating a single concentration of compound and a concentration of 1000, 300, 100, 30, 10, 3, 1, 0.3, 0.1 and 0.03 nM in the case of IC50 evaluation, and then reacted at room temperature for 15 minutes. 5 ul of substrate and 5 ul of ATP prepared so as to have a final concentration of 10 μM were added to the plate on which reactions were completed, and then allowed to react at 30° C. for 1 hour. All wells of the plate were treated with 25 ul of ADP-Glo™ reagent and allowed to react at 30° C. for 40 minutes. After that, all wells were treated with 50 ul of kinase detection buffer, and then reacted at 30° C. for 30 minutes under light shielding conditions. For the plate on which all reactions were completed, luminescence was measured and the results were calculated. Evaluation was carried out in duplicate, and negative control and positive control were calculated depending on whether or not the enzyme was added without treatment of the compound. The IC50 was calculated based on the calculated values.

T2 sequence (Q06187 whole entry): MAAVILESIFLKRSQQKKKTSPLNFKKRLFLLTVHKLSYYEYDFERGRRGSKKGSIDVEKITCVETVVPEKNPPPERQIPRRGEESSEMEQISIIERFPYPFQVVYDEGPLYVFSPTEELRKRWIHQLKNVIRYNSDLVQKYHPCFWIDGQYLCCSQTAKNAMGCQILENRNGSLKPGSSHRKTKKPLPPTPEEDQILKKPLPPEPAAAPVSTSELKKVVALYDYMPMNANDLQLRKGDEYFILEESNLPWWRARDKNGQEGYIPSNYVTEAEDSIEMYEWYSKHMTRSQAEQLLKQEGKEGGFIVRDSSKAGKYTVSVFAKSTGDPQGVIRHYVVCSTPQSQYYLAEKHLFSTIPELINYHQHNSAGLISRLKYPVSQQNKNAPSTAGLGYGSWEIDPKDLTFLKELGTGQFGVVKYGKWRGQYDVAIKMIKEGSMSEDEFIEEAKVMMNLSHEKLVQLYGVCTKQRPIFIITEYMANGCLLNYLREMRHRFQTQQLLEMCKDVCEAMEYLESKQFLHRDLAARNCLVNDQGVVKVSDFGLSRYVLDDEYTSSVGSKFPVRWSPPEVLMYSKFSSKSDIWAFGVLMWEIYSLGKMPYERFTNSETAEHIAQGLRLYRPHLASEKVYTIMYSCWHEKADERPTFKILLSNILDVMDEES

Row | SMILES | IC50 (ITK) [nM] | IC50 (BTK) [nM]
1 | C=CC(=O)Nc1cccc(-c2cc(CN3CCN(CC(F)(F)F)CC3)cc(Nc3ncc(C)s3)n2)c1 [Compound 50, N (3(6(5methylthiazol-2-ylamino)-4-((4-(2,2,2-trifluoroethyl)piperazin-1-yl)methyl)pyridin-2-yl)phenyl)acrylamide] | 5 | 2.2
2 | C=CC(=O)Nc1cccc(-c2cc(C)cc(Nc3cc(C)[nH]n3)n2)c1 [Compound 16, N-(3-(4-methyl-6-(5-methyl-1H-pyrazol-3-ylamino)pyridin-2-yl)phenyl)acrylamide] | 192 | 6.1
3 | C=CC(=O)Nc1cccc(-c2cc(CN3CCOCC3)cc(Nc3cc(C)on3)n2)c1 [Compound 40, N-(3-(6-((5-methylisoxazol-3-ylamino)-4-(morpholino)methyl)pyridin-2-yl)phenyl)acrylamide] | > 1000 | > 400
4 | C=CC(=O)Nc1cccc(-c2cc(CN3CCN(C(=O)C(C)C)CC3)cc(Nc3ncc(C)s3)n2)c1 [Compound 62, N (3(4((4-isobutyrylpiperazin-1-yl)methyl)-6-(5-methylthiazol-2-ylamino)pyridin-2-yl)phenyl)acrylamide] | 8.1 | –
5 | C=CC(=O)Nc1cc(-c2cc(CN3CCOCC3)cc(Nc3ncc(C)s3)n2)ccc1C [Compound 58] | 14.1 | 6.4
6 | C=CC(=O)Nc1cccc(-c2cc(Cc3ccccc3)cc(Nc3cc(C(C)c4ccc(C)cc4)[nH]n3)n2)c1 (centres unmarked) [Compound 9] | > 1000 | > 1000
7 | C=CC(=O)Nc1cccc(-c2cc(CN3CCOCC3)cc(NC(=O)C3CC3)n2)c1 [Compound 42, N-(6-(3-acrylamidophenyl)-4-(morpholinomethyl)pyridin-2-yl)cyclopropanecarboxamide] | > 1000 | > 400
8 | C=CC(=O)Nc1cccc(-c2cc(CN3CCN(C(=O)C4CC4)CC3)cc(Nc3ncc(C)s3)n2)c1 [Compound 63, N (3(4((4-(cyclopropanecarbonyl)piperazin-1-yl)methyl)-6-(5-methylthiazol-2-ylamino)pyridin-2-yl)phenyl)acrylamide] | 9 | 6.7
9 | C=CC(=O)Nc1cccc(-c2cc(CN3CCOCC3)cc(Nc3ncns3)n2)c1 [Compound 44, N-(3-(6-((1,2,4-thiadiazol-5-yl)amino)-4-(morpholinomethyl)pyridin-2-yl)phenyl)acrylamide] | 12 | 2
10 | C=CC(=O)Nc1cccc(-c2cc(CN3CCN(CC)CC3)cc(Nc3ncc(C)s3)n2)c1 [Compound 53, N-(3-(4-((4-ethylpiperazin-1-yl)methyl)-6-(5-methylthiazol-2-yl)amino)pyridin-2-yl)phenylacrylamide] | 3.8 | 2.3
11 | C=CC(=O)Nc1cccc(-c2cc(C(F)(F)F)cc(Nc3cc(C)[nH]n3)n2)c1 [Compound 17] | 131 | 11.1
12 | C=CC(=O)Nc1cccc(-c2cccc(Nc3cc(C)[nH]n3)n2)c1 [Compound 12] | 995 | 7.8
13 | C=CC(=O)Nc1cccc(-c2cc(CN3CCOCC3)cc(Nc3nnc(C)o3)n2)c1 [Compound 41, N-(3-(6-((5-methyl-1,3,4-oxadiazol-2-yl)amino)-4-(morpholinomethyl)pyridin-2-yl)phenyl)acrylamide] | > 1000 | > 400
14 | C=CC(=O)Nc1ccc(-c2cc(Cc3ccccc3)cc(Nc3cc(C)[nH]n3)n2)cc1 [Compound 1, N-(4-(4-benzyl-6-(5-methyl-1H-pyrazol-3-ylamino)pyridin-2-yl)phenyl)acrylamide] | 289 | > 1000
15 | C=CC(=O)Nc1cccc(-c2cc(C(=O)NC(C)C(C)(C)C)cc(Nc3cc(C)[nH]n3)n2)c1 (centres unmarked) [Compound 20, 2-(3-acrylamidophenyl)-N-(3,3-dimethylbutan-2-yl)-6-(5-methyl-1H-pyrazol-3-ylamino)isonicotinamide] | 254 | 28.1
16 | C=CC(=O)Nc1cccc(-c2cc(CN3CCOCC3)cc(Nc3ncc(C(F)(F)F)s3)n2)c1 [Compound 51] | 2.2 | 5.2
17 | C=CC(=O)Nc1cccc(-c2cc(CN3CCOCC3)cc(Nc3cc(C)[nH]n3)n2)c1 [Compound 22, N-(3-(6-((5-methyl-1H-pyrazol-3-yl)amino)-4-(morpholinomethyl)pyridin-2-yl)phenyl)acrylamide] | 77.8 | 6.1
18 | C=CC(=O)Nc1cccc(-c2cc(Cc3ccccc3)cc(Nc3cc(-c4ccccc4)[nH]n3)n2)c1 [Compound 5, N-(3-(4-benzyl-6-((5-phenyl-1H-pyrazol-3-yl)amino)pyridin-2-yl)phenyl)acrylamide] | 317 | 777
19 | C=CC(=O)Nc1cccc(-c2cc(CN3CCN(C(C)C)CC3)cc(Nc3ncc(C)s3)n2)c1 [Compound 54] | 2.9 | 1.9
20 | C=CC(=O)Nc1cccc(-c2cc(C)cc(Nc3ncc(C)s3)n2)c1 [Compound 26, N-(3-(4-methyl-6-((5-methylthiazol-2-yl)amino)pyridin-2-yl)phenyl)acrylamide] | 76.4 | 10.5
21 | C=CC(=O)Nc1cccc(-c2cc(CN3CCCC3)cc(Nc3ncc(C)s3)n2)c1 [Compound 47, N-(3-(6-((5-methylthiazol-2-yl)amino)-4-(pyrrolidin-1-ylmethyl)pyridin-2-yl)phenyl)acrylamide] | 8.2 | 3
22 | C=CC(=O)Nc1cccc(-c2cc(Cc3ccccc3)cc(Nc3cc(-c4ccc(Oc5ccccc5)cc4)[nH]n3)n2)c1 [Compound 7, N-(3-(4-benzyl-6-((5-(4-phenoxyphenyl)-1H-pyrazol-3-yl)amino)pyridin-2-yl)phenyl)acrylamide] | > 500 | 123
23 | C=CC(=O)Nc1cccc(-c2cc(CN3CCN(C(C)=O)CC3)cc(Nc3ncc(C)s3)n2)c1 [Compound 60, N-(3-(4-((4-acetylpiperazin-1-yl)methyl)-6-(5-methylthiazol-2-ylamino)pyridin-2-yl)phenyl)acrylamide] | 2.2 | 1.9
24 | C=CC(=O)Nc1cccc(-c2cc(C)cc(Nc3ccccn3)n2)c1 [Compound 18, N-(3-(4-methyl-6-(pyridin-2-ylamino)pyridin-2-yl)phenyl)acrylamide] | > 1000 | 28.7
25 | C=CC(=O)Nc1ccc(Cl)c(-c2cc(CN3CCOCC3)cc(Nc3ncc(C)s3)n2)c1 [Compound 64] | 15.7 | 18.1
26 | C=CC(=O)Nc1cc(F)cc(-c2cc(CN3CCOCC3)cc(Nc3ncc(C)s3)n2)c1 [Compound 57, N-(3-fluoro-5-(6-((5-methylthiazol-2-yl)amino)-4-(morpholinomethyl)pyridin-2-yl)phenyl)acrylamide] | 23.2 | > 6.3
27 | C=CC(=O)Nc1cccc(-c2cc(CN3CCOCC3)cc(Nc3ncc(C(=O)Nc4c(C)cccc4Cl)s3)n2)c1 [Compound 33, 2-((6-(3-acrylamidophenyl)-4-(morpholinomethyl)pyridin-2-yl)amino)-N-(2-chloro-6-methylphenyl)thiazole-5-carboxamide] | > 1000 | 1.9
